From patent US11066357B2, “Benzoannulene derivatives as antiviral agents” (Southern Research Institute, priority 2017, dated 2021)

Key:
CHIKV = experiment: antiviral activity (EC50), Table 1; assay type: cell-based; conditions: Chikungunya virus
[1] = cytotoxicity (CC50), Table 1

SMILES	EC50 (CHIKV)	CC50 [1]
CC(C)(C)c1ccc(NC(=O)c2ccc3c(c2)CCCCC3)cc1 [Compound 3, N-(4-(tert.-butyl)phenyl)-6,7,8,9-tetrahydro-5H-benzo[7]annulene-2-carboxamide]	1.09 µM	> 40 µM
CCOc1cc2c(cc1C(=O)Nc1ccc(C(C)(C)C)cc1)CCCCC2 [Compound 21, N-(4-(tert.-butyl)phenyl)-3-ethoxy-6,7,8,9-tetrahydro-5H-benzo[7]annulene-2-carboxamide]	29.9 µM	> 40 µM
COc1cc2c(cc1C(=O)Nc1ccc(C(O)(C(F)(F)F)C(F)(F)F)cc1)CCCCC2 [Compound 12, N-(4-(1,1,1,3,3,3-hexafluoro-2-hydroxypropan-2-yl)phenyl)-3-methoxy-6,7,8,9-tetrahydro-5H-benzo[7]annulene-2-carboxamide]	> 40 µM	> 40 µM
